{"source": "patent US12612427B2", "about": "“Aryl glucoside derivative, preparation method therefor and application thereof” (Shanghai Zheye Biotechnology Co. Ltd., priority 2020, dated 2026)", "key": {"[1]": {"test": "Pharmacokinetic study in rats", "assay_type": "in vivo, rat", "conditions": "10 mg/kg, oral gavage, 0-24 hours", "description": "5. Pharmacokinetic Study in Rats • Experimental animals: SPF male SD rats; • Dosage and method of administration: 10 mg/kg, oral gavage. • Research compound: Dapagliflozin, the compound of Example 9, the compound of Example 10, the compound of Example 17, and the comparative compound 6;\nTest method: Before administration (0), and 1, 4, 8, and 24 hours after administration, 0.2 ml of blood was collected from orbital venous plexus, anticoagulated with heparin, plasma was collected, and the blood drug concentration was determined."}, "SD rats": {"system": "SD rats", "test": "Oral glucose tolerance test (OGTT) after continuous administration in rats for 14 days", "assay_type": "in vivo, rat", "description": "• Experimental animals: SPF male SD rats; • Compound preparation: an appropriate amount of the compounds of Example 1, Example 2, Example 9, Example 10, and Example 17 were weighed, and uniformly suspended with an appropriate amount of 0.5% CMC-Na solution; • Preparation of glucose solution: an appropriate amount of glucose powder was weighed and dissolved with an appropriate amount of pure water; • Dosage and method of administration: 0.009 mg/kg, oral gavage.\nExperimental process: the animals were fed a normal diet with consecutive administration for 14 days, and the glucose tolerance test was performed on day 15, blood glucose was detected before administration (−30 min), before giving glucose (0 min), and 10, 30, 60, and 120 min after giving glucose solution, and the defecation of animals was observed."}, "human SGLT1": {"target": "T1, human SGLT1 (Homo sapiens, UniProt P13866)", "T1 construct": "expressed in transfected cells", "T1 sequence (P13866 1-664)": "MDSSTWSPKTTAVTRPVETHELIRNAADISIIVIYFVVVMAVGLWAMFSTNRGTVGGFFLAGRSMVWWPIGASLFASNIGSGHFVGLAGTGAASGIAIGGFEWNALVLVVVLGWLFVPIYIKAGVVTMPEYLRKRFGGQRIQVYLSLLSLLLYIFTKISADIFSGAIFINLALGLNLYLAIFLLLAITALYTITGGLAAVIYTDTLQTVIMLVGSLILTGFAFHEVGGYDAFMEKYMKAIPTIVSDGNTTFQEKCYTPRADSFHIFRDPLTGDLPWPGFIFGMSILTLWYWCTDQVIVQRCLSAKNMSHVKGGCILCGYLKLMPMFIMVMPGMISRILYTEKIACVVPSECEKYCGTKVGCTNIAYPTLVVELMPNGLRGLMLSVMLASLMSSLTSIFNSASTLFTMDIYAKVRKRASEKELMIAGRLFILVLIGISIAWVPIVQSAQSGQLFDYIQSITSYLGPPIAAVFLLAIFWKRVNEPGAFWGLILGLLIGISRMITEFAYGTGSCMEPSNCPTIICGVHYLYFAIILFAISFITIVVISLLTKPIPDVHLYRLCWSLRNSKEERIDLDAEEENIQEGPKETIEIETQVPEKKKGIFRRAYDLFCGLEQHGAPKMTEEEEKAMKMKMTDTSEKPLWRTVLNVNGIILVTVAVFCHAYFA", "test": "hSGLT1 inhibitor activity experiment 2: 2-NBDG uptake by HEK293 cells stably expressing human SGLT1", "assay_type": "cell-based", "description": "Inhibitory activity testing was performed with reference to a similar method described in document [Acta Pharmaceutica Sinica 2017, 52 (6): 897-903; Nature Protocols (2007), 2(3), 753-762; Journal of Biochemical and Biophysical Methods (2005), 64(3), 207-215; Diabetes Technology & Therapeutics (2011), 13(7), 743-775].\nIn this experiment, the in vitro activity assay was evaluated using the uptake of 2-NBDG (2-Deoxy-2-[(7-nitro-2,1,3-benzoxadiazol-4-yl)amino]-D-glucose, CAS NO: 186689-07-6) by human embryonic kidney epithelial cells (HEK293, stably expressing human SGLT1), and the SGLT1 inhibitory activity of the target compound was determined by measuring its half-maximal inhibitory concentration (IC50).\nHEK293 cells that can stably express human SGLT1 gene were inoculated into a 96-well clear-bottom black plate containing DMEM medium. The cells were incubated at 37° C., 5% CO2 in a cell incubator. The medium in the 96-well plate was aspirated, and the plate was treated with low-glucose serum-free DMEM medium, and washed once with non-specific uptake buffer and once with Na^+-dependent uptake buffer. Uptake buffer containing test compound was added to each well of cells, followed by uptake buffer containing 2-NBDG for glucose uptake, and the cell plate was incubated at 37° C., 5% CO2. The compounds were gradiently diluted. The uptake reaction was stopped by removing the culture medium, and after washing the cells with ice-cold uptake buffer, the washing solution was removed. The cells were lysed by adding NaOH, and the content of 2-NBDG in the cells was detected by a fluorescence microplate reader. The protein concentration of the lysate was measured by BCA method, the uptake of 2-NBDG was quantified by fluorescence intensity/protein content, and the obtained data were analyzed using GraphPad Prism to determine the median inhibitory concentration (IC50) of the compound to be tested."}, "SD mice": {"system": "SD mice", "test": "Oral glucose tolerance test (OGTT) after consecutive administration in mice", "assay_type": "in vivo, mouse", "conditions": "for Statistics of loose stools in animals / loose stools (in words): mice", "description": "• Experimental animals: SPF male SD mice; • Compound preparation: an appropriate amount of the compound of Example 10 was weighed, and uniformly suspended with an appropriate amount of 0.5% CMC-Na solution; • Preparation of glucose solution: an appropriate amount of glucose powder was weighed and dissolved with an appropriate amount of pure water; • Administration and dosage: oral gavage; blank vehicle group, high-dose group (1.5 mg/kg), low-dose group (0.1 mg/kg). Experimental Process: • (1) The mice were fed a high-sugar diet for 6 days, and then grouped (10 mice in each group) to enter the administration stage; • (2) Example compound 10 was administered at 5:00 pm every day from day 1 to day 5, once a day, and then the animals were fed a high-sugar free diet, and the defecation of the animals was observed. • (3) On day 6, oral glucose tolerance test was performed, and glucose solution (2 g/kg) was orally administered. Blood glucose was detected before (0 min) and 10, 30, and 60 min after giving glucose solution, respectively. Experimental Results: • (1) From day 1 to day 5, the observation of animal defecation after continuous administration is summarized as follows: […]"}}, "note": "“And” between values parts separate entries of the source, which are not always exact repeats. Equal entries are not always repeated."}
{"smiles": "C#CCN(C)C(=O)CN(C)CCNC(=O)C(C)(C)NC(=O)CCCc1ccc(Cc2cc([C@@H]3O[C@H](SC)[C@@H](O)[C@H](O)[C@H]3O)ccc2C)cc1", "note": "[Example 10]", "values": [{"measurement": "drug concentration in plasma", "setting": "[1]", "value": "did not reach the detection limit"}, {"measurement": "blood sugar level of rats (OGTT)", "setting": "SD rats; 0.009 mg/kg oral gavage, 14 days, OGTT on day 15", "value": "significantly reduce the blood sugar level"}, {"measurement": "loose stools in the experimental animals", "setting": "SD rats; rats, within 48 hours before and after the experiment", "value": "no loose stools were observed"}, {"measurement": "activity of inhibiting SGLT1 (in words)", "setting": "human SGLT1", "value": "significant activity of inhibiting SGLT1"}, {"measurement": "IC50", "setting": "human SGLT1; 2-NBDG uptake, HEK293 stably expressing human SGLT1, read-out: SGLT1 Inhibitory Activity", "value": 0.37, "unit": "nM"}, {"measurement": "blood glucose level of mice (OGTT)", "setting": "SD mice; day 6, high (1.5 mg/kg) and low (0.1 mg/kg) dose groups, glucose 2 g/kg", "value": "significantly reduce the blood glucose level"}, {"measurement": "Statistics of loose stools in animals", "setting": "SD mice; high-dose group (1.5 mg/kg), Day 1", "value": "only one animal had loose stools and 1/10"}, {"measurement": "Statistics of loose stools in animals", "setting": "SD mice; high-dose group (1.5 mg/kg), Day 2", "value": "0/10"}, {"measurement": "Statistics of loose stools in animals", "setting": "SD mice; high-dose group (1.5 mg/kg), Day 3", "value": "0/10"}, {"measurement": "Statistics of loose stools in animals", "setting": "SD mice; high-dose group (1.5 mg/kg), Day 4", "value": "0/10"}, {"measurement": "Statistics of loose stools in animals", "setting": "SD mice; high-dose group (1.5 mg/kg), Day 5", "value": "0/10"}, {"measurement": "loose stools (in words)", "setting": "SD mice; high-dose group (1.5 mg/kg), day 2 to day 5", "value": "did not have loose stools"}, {"measurement": "Statistics of loose stools in animals", "setting": "SD mice; low-dose group (0.1 mg/kg), Day 1", "value": "0/10"}, {"measurement": "Statistics of loose stools in animals", "setting": "SD mice; low-dose group (0.1 mg/kg), Day 2", "value": "0/10"}, {"measurement": "Statistics of loose stools in animals", "setting": "SD mice; low-dose group (0.1 mg/kg), Day 3", "value": "0/10"}, {"measurement": "Statistics of loose stools in animals", "setting": "SD mice; low-dose group (0.1 mg/kg), Day 4", "value": "0/10"}, {"measurement": "Statistics of loose stools in animals", "setting": "SD mice; low-dose group (0.1 mg/kg), Day 5", "value": "0/10"}, {"measurement": "loose stools (in words)", "setting": "SD mice; low-dose group (0.1 mg/kg), continuous administration for 5 days", "value": "did not have loose stools"}]}
